The results in this text go back to patent publication US20230203031A1, “COMPOUNDS USEFUL FOR INHIBITING CDK7” (Eli Lilly and Company, priority 2020, published 2023).

Read-outs that look alike come from different tables or passages of the source.

In one experiment the target is CDK7/CyclinH/Mat1 (Homo sapiens, UniProt P50613). Put plainly: Biochemical assay for inhibition of CDK7/CyclinH/MAT1 (radiolabel filter binding). To be noted: 100 µM ATP.
A further experiment deals with cMyc in HCT116 cells. Put plainly: cMyc cell based Acumen assay. The conditions noted are these: read-out: Relative IC50 for cMyc. The protocol:
HCT116 cells (ATCC CCL-247) are cultured in McCoy’s 5 Å Medium Modified media supplemented with 10% FBS, 1% NaPyr, and 1% Pen/Strep and plated (prior to becoming 70% confluent) in 96-well flat-bottom plates at a density of 5,000 cells per well in 100 µL volume. The cells are then incubated overnight in a cell culture incubator (5% CO2, 95% Relative Humidity (RH), and 37° C.) and allowed to attach to the plate. The following morning the cells are dosed with compounds. Compound inhibitors are solubilized at 60 µM in culture medium containing 0.6% DMSO. Subsequently, compound serial dilutions (1:3) are prepared over a 60 µM to 0.003 µM range. Cells are dosed with the addition of 50 µL from serial dilution plate to assay plate containing cell attached with 100 µL of media producing a final DMSO concentration of 0.2% with a final compound concentration dose range between 20 µM and 0.001 µM. For max point media containing 0.2% of DMSO is used and for min point, a reference compound diluted at 0.83 µM final concentration in the growth media containing 0.2% DMSO is used. After dosing with compounds, the cell plates are incubated at 37° C. and 5% CO2 for 4 hours. Growth media is removed carefully and the cells are fixed by adding 100 µL of 4% para-formaldehyde for 30 minutes at RT. Cell are washed once with PBS and incubated with 100 µL of cold MeOH for 15 minutes at RT for cell permeation. Again cell are washed twice with PBS (100 µL/each) and blocked with 100 µL/well of 1% BSA/PBS for 30 minutes at RT. 50 µL of 1:1000 primary antibody (Anti-c-Myc antibody [Y69] Abcam cat# ab32072) dilution in 1% BSA/PBS are added per well, the plates sealed and incubated overnight at 4° C. The following day cells are washed three times with PBS (100 µL/well) and incubated with 50 µL/well of secondary antibody (1:2000 dilution, Goat anti-rabbit IgM ALEXA FLUOR™ 488) in PBS for 1 hour at RT. After wash 3× with PBS (100 µL/well), 100 µL of 50 µg/mL RNAase and 1:1000 propidium iodide (Invitrogene) dilution in PBS are added per well. Plates are sealed and incubated for 1 hour at RT on the bench (preserved from light). Plates are analyzed on Acumen on FL2 (mean intensity), and FL3 (total intensity). Fluorescence Plates are scanned with ACUMEN EXPLORER™ [Laser-scanning fluorescence microplate cytometer manufactured by TTP LABTECH LTD] to measure anti-phospho-carboxyl terminal domain at Serine 5 (pCTD). Image analysis is based on cellular fluorescent signals for identifying positive cells. pCTD (S5) positive cells are identified by mean intensity at 500-530 above the threshold. Total intensity at 575-640 from propidium iodide/DNA is used to identify individual cells. Assay output is % pCTD positive cells. The IC50 is determined by curve fitting to a four parameter logistic for each output using GENE DATA™.

Another experiment concerns the target CDK9/cyclinT1 (Homo sapiens, UniProt P50750). Put plainly: Assay for inhibition of CDK9/CyclinT1 kinase activity (radiolabel filter binding). To be noted: IC50 for CDK9 (3 hours preincubation), 100 µM ATP.
Experiment [1] concerns phosphoCTD (S2) in HCT116 cells. Put plainly: Phospho-carboxyl terminal domain (Ser2) p-CTD (S2) cell based Acumen assay. The conditions noted are these: read-out: relative IC50 for phosphoCTD (S2). The protocol: HCT116 cells (ATCC CCL-247) are cultured in McCoy’s 5 Å Medium Modified media supplemented with 10% FBS, 1% NaPyr, and 1% Pen/Strep and plated (prior to becoming 70% confluent) in 96-well flat-bottom plates at a density of 5,000 cells per well in 100 µL volume. The cells are then incubated overnight in a cell culture incubator (5% CO2, 95% Relative Humidity (RH) and 37° C.) and allowed to attach to the plate. The following morning the cells are dosed with compounds. Compound inhibitors are first solubilized at 60 µM in culture medium containing 0.6% DMSO. Subsequently compound serial dilutions (1:3) are prepared over a 60 µM to 0.003 µM range. Cells are dosed with the addition of 50 µL from serial dilution plate to assay plate containing cells attached with 100 µL of media producing a final DMSO concentration of 0.2% with a final compound concentration dose range between 20 and 0.001 µM. For max point media containing 0.2% of DMSO is used and for min point, a reference compound diluted at 0.83 µM final concentration in the growth media containing 0.2% DMSO is used. After dosing with compounds, the cell plates are incubated at 37° C. and 5% CO2 for 4 hours. The growth media is removed carefully and the cells are fixed by adding 100 µL of 4% para-formaldehyde for 30 minutes at RT. Cells are washed once with PBS and incubated with 100 µL of cold MeOH for 15 minutes at RT for cell permeation. Cells are washed twice with PBS (100 µL/each) and blocked with 100 µL/well of 1% BSA/PBS for 30 minutes at RT. 50 µL of 1:1000 primary antibody (Anti-phospho CTD Ser2 Abcam, cat# ab5095-100) dilution in 1% BSA/PBS are added per well, the plates are sealed and incubated overnight at 4° C.
The following day cells are washed three times with PBS (100 µL/well) and incubated with 50 µL/well of secondary antibody (1:2000 dilution, Goat anti-rabbit IgM ALEXA FLUOR™ 488) in PBS for 1 hour at RT. After washing 3X with PBS (100 µL/well), 100 µL of 50 µg/mL RNAase and 1:1000 propidium iodide dilution in PBS are added per well. Plates are sealed and incubated 1 hour at RT on the bench (preserved from light). Plates are analyzed on Acumen on FL2 (mean intensity) and FL3 (total intensity). Fluorescence plates are scanned with ACUMEN EXPLORER™ [Laser-scanning fluorescence microplate cytometer manufactured by TTP LABTECH LTD] to measure anti-phospho-carboxyl terminal domain at Serine 2 (pCTD). Image analysis is based on cellular fluorescent signals for identifying positive cells. pCTD (S2) positive cells are identified by mean intensity at 500-530 above the threshold. Total intensity at 575-640 from propidium iodide/DNA is used to identify individual cells. Assay output is % pCTD positive cells.
The IC50 is determined by curve fitting to a four parameter logistic for each output using GENE DATA™.

The mark [2] stands for this setting: IC50 after 3 hours of preincubation of CDK7 enzyme, 3 hours preincubation.
[3] abbreviates: IC50 in CDK7 without preincubation, no preincubation of enzyme with compound.

Chain of CDK7/CyclinH/Mat1 (P50613 whole entry): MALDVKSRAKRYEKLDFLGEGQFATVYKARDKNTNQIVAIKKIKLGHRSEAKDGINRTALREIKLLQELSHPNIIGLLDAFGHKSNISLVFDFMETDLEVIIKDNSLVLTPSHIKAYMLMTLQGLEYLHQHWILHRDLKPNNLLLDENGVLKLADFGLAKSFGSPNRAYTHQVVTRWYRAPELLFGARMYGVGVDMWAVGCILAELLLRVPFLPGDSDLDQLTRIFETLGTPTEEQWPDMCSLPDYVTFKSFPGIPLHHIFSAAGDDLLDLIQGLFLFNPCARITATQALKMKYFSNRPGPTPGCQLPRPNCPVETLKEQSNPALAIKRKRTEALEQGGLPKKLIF
Chain of CDK7/CyclinH/Mat1 (P51946 whole entry partner): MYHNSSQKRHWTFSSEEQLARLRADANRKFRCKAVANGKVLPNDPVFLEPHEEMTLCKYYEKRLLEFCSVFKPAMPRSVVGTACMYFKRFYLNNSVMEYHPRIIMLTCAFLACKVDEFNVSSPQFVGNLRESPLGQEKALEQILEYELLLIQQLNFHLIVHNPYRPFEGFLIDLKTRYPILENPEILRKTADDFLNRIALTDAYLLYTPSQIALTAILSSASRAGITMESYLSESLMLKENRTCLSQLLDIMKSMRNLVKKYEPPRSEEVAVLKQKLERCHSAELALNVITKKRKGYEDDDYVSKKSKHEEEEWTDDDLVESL
Chain of CDK7/CyclinH/Mat1 (P51948 whole entry partner): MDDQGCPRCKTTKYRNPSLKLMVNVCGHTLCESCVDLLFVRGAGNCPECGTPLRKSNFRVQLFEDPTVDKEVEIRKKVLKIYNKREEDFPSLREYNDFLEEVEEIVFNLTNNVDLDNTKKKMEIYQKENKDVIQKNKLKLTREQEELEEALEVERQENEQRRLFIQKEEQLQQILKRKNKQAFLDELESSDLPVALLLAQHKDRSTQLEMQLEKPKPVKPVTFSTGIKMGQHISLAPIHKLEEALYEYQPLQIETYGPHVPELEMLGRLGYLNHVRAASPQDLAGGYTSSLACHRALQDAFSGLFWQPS
Chain of CDK9/cyclinT1 (P50750 whole entry, the tested form may be a part): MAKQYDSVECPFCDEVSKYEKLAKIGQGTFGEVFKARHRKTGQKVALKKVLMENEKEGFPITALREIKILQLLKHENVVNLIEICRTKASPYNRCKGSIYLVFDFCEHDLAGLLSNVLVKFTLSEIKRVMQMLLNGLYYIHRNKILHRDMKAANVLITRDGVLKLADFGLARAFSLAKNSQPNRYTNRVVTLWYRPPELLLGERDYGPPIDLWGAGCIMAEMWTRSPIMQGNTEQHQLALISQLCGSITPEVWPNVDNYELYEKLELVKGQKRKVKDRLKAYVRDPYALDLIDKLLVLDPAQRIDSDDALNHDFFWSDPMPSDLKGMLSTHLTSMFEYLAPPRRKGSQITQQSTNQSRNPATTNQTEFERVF
Chain of CDK9/cyclinT1 (O60563 whole entry partner, the tested form may be a part): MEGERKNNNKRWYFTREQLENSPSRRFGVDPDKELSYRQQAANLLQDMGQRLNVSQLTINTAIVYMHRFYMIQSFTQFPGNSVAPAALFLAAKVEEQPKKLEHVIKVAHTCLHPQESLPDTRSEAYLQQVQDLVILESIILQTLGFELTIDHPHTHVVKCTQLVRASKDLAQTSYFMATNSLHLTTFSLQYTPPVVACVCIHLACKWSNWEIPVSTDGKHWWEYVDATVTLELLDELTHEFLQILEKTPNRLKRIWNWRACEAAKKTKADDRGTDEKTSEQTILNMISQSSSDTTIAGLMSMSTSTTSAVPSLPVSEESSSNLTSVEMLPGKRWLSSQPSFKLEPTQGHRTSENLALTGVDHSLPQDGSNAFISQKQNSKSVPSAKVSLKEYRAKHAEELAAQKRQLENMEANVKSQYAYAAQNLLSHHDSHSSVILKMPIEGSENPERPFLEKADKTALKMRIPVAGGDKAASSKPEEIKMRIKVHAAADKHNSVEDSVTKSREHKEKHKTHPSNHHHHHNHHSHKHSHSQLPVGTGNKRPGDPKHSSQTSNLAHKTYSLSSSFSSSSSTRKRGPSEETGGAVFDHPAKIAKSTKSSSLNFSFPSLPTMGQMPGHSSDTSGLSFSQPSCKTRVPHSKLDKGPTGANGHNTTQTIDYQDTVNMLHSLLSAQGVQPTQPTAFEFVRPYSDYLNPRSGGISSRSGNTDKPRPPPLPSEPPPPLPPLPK
Description for CDK7/CyclinH/Mat1: The purpose of these assays is to measure the ability of the compounds described herein to inhibit CDK7/CyclinH/Mat1 complex kinase activity. […] All ligands, solvents, and reagents employed in the following assays are readily available from commercial sources, or can be readily synthesized by one skilled in the art. The IC50 determination for CDK7 and CDK9 are determined as follows.
The IC50 activity of the compounds described herein is determined using radiolabel filter binding (FB) assays using the purified human recombinant enzyme in the presence of ATP//[^33P]ATP and peptide substrate. The ATP concentrations chosen are at or near the enzyme Km for ATP.
Reactions are carried out in 96 well polystyrene plates in a final volume of 25 µL per well. 5 µL of test compound in 20% DMSO, 10 µL of substrate solution (ATP/33PATP and CDK7/9 tide), and 10 µL of enzyme solution are mixed. […] The enzyme solution is prepared for a final concentration of 1 nM CDK7/CyclinH/Mat1 enzyme [Proqinase 0366-0360-4 Lot 002)] diluted in kinase buffer. Test compounds are serially diluted 1:3 in 20% DMSO to create a 10 point curve at a starting concentration of 20 µM. 20% DMSO buffer alone without test compound is employed as high control (full activity in the absence of any inhibitor), 500 mM EDTA is used to determine the level of background in the absence of enzyme activity (low control). After mixing 5 µL of compounds with 10 µL of enzyme solution, the plate is incubated for 0 or 180 minutes at 22° C. After that time, the reaction is initiated by the addition of 10 µL substrate solution and incubated for 50 minutes at 22° C. The reaction is terminated by the addition of 80 µL of cold 10% orthophosphoric solution. The Filter Plates (opaque, non-sterile filter plates) are prewashed with 10 µL of 10% orthophosphoric solution to each well. 100 µL of the mixture are transferred to a phosphocellulose filter and incubated at room temperature for 45 minutes. Filter plates are washed with 200 µL 0.5 % orthophosphoric acid 3 times on a filter plate processor. Incorporation of 33Pi (counting of “cpm”) is determined by adding 80 µL of MICROSCINT™ to each well and read on a counter after an hour. Data is processed through a [sequence] [sequence]Ⓡ tool. Data are analyzed using a 4-parameter nonlinear logistic equation (four-parameter logistic concentration-response curve): Y = bot + [(top-bot)/1+(x/ IC50)slope] where Y = % inhibition, X = concentration yielding y% inhibition, Bottom = minimum value of y attained by curve, Top = maximum value of y attained by curve and Slope = steepness of curve at IC50. %Inh = [(median Max- x/ median Max - median Min)] . 100 IC50: concentration of compound that reduces a given response (ligand binding, enzyme response) by 50%.
Description for CDK9/cyclinT1: The purpose of these assays is to measure the ability of the compounds described herein to inhibit CDK7/CyclinH/Mat1 complex kinase activity. […] The IC50 determination for CDK7 and CDK9 are determined as follows.
The IC50 activity of the compounds described herein is determined using radiolabel filter binding (FB) assays using the purified human recombinant enzyme in the presence of ATP and peptide substrate. The ATP concentrations chosen are at or near the enzyme Km for ATP. Reactions are carried out in 96 well polystyrene plates in a final volume of 25 µL per well. 5 µL of test compound in 20% DMSO, 10 µL of substrate solution (ATP//[^33P]ATP and CDK7/9 tide) and 10 µL of enzyme solution are mixed. […] The enzyme solution is prepared for a final concentration of 7.5 nM CDK9/cyclinTl enzyme [Proqinase 0371-0345-1 (Lot 004)] diluted in kinase buffer. Test compounds are serially diluted 1:3 in 20% DMSO to create a 10 point curve at a starting concentration of 20 µM. 20% DMSO buffer alone without test compound is employed as high control (full activity in the absence of any inhibitor), 500 mM EDTA is used to determine the level of background in the absence of enzyme activity (low control). After mixing 5 µL of compounds with 10 µL of enzyme solution, the plate is incubated for 0 or 180 minutes at 22° C. After that time, the reaction is initiated by the addition of 10 µL substrate solution and incubated for 60 minutes at 22° C. The reaction is terminated by the addition of 80 µL of cold 10% orthophosphoric solution. Filter plates (opaque, non-sterile filter plates) are prewashed with 10 µL of 10% orthophosphoric solution per well. 100 µL of the mixture are transferred to a phosphocellulose filter and incubate at room temperature for 45 minutes. Filter plates are washed with 200 µL 0.5 % orthophosphoric acid 3 times on a filter plate processor. 80 µL of MICROSCINT™ is added to each well and read on a scintillation counter after an hour. Data is processed through a [sequence]-[sequence]Ⓡ tool. Data is analyzed using a 4-parameter nonlinear logistic equation (four-parameter logistic concentration-response curve): Y = bot + [(top-bot)/1+(x/ IC50)Slope] where Y = % inhibition, X = concentration yielding y% inhibition, Bottom = minimum value of y attained by curve, Top = maximum value of y attained by curve and Slope = steepness of curve at IC50. %Inh = [(median Max- x/ median Max - median Min)] . 100 IC50: concentration of compound that reduces a given response (ligand binding, enzyme response) by 50%. IC50 relative: concentration giving half the compound’s maximum response.

Usually IC50 stands for the midpoint of a concentration-inhibition curve. Turning to `[2H]CC([2H])(C)c1cnc2c(NC3CCN(C[C@@H]4CN(C(=O)C=C)CCO4)CC3)cc(C(F)(F)F)cn12` (mixture of isomers) [Example 7, 1-[(2R)-2-[[4-[[3-[rac-1,2-dideuterio-1-methyl-ethyl]-6-(trifluoromethyl)imidazo[1,2-a]pyridin-8-yl]amino]-1-piperidyl]methyl]morpholin-4-yl]prop-2-en-1-one], the IC50 at CDK7/CyclinH/Mat1 (setting [2]) came out at 6.25 nM; at CDK7/CyclinH/Mat1 (setting [3]), 84.5 nM; in the experiment with cMyc in HCT116 cells (Homo sapiens, HCT-116, 4 h), 13.8 nM; at CDK9/cyclinT1, 2030 nM; in experiment [1] (Homo sapiens, HCT-116, 4 h), 2920 nM.

With `C=CC(=O)N1CCO[C@H](CN2CCC(Nc3cc(C(C)F)cn4c(C(C)C)cnc34)CC2)C1` (single isomer, unassigned) [Example 1], the IC50 on CDK7/CyclinH/Mat1 (setting [2]) was 14.3 nM; on CDK7/CyclinH/Mat1 (setting [3]), 123 nM; in the experiment with cMyc in HCT116 cells (Homo sapiens, HCT-116, 4 h) it was 82 nM; on CDK9/cyclinT1, 1770 nM; in experiment [1] (Homo sapiens, HCT-116, 4 h) it was 5730 nM.

Take `C=CC(=O)N1CCO[C@H](CN2CCC(Nc3cc(C(C)F)cn4c(C(C)C)cnc34)CC2)C1` (single isomer, unassigned) [Example 2]: the IC50 at CDK7/CyclinH/Mat1 (setting [2]) was 26.6 nM; at CDK7/CyclinH/Mat1 (setting [3]), 256 nM; in the experiment on cMyc in HCT116 cells (4 hours) it was 94.7 nM; at CDK9/cyclinT1 it was 3180 nM; in experiment [1] (4 hours), 6360 nM.

As to `C=CC(=O)N1CCO[C@H](CN2CCC(Nc3cc(C(C)O)cn4c(C(C)C)cnc34)CC2)C1` (single isomer, unassigned) [Example 4], the IC50 on CDK7/CyclinH/Mat1 (setting [2]) is 14.3 nM; on CDK7/CyclinH/Mat1 (setting [3]), 155 nM; in the experiment on cMyc in HCT116 cells (4 hours) it was 38 nM; on CDK9/cyclinT1 it was 8050 nM; in experiment [1] (4 hours) it was 3710 nM.

Consider `C=CC(=O)N1CCO[C@H](CN2CCC(Nc3cc(C(C)O)cn4c(C(C)C)cnc34)CC2)C1` (single isomer, unassigned) [Example 5], for which the IC50 at CDK7/CyclinH/Mat1 (setting [2]) came out at 41.5 nM; at CDK7/CyclinH/Mat1 (setting [3]), 367 nM; with cMyc in HCT116 cells (4 hours), 140 nM; at CDK9/cyclinT1, 7130 nM; in experiment [1] (4 hours), 7790 nM.

Consider `[2H]C([2H])=C([2H])C(=O)N1CCO[C@H](CN2CCC(Nc3cc(C(F)(F)F)cn4c(C(C)C)cnc34)CC2)C1` [Example 6, 2,3,3-trideuterio-1-[(2R)-2-[[4-[[3-isopropyl-6-(trifluoromethyl)imidazo[1,2-a]pyridin-8-yl]amino]-1-piperidyl]methyl]morpholin-4-yl]prop-2-en-1-one], for which the IC50 at CDK7/CyclinH/Mat1 (setting [2]) was 3.96 nM; at CDK7/CyclinH/Mat1 (setting [3]) it was 67.4 nM; in the experiment on cMyc in HCT116 cells (Homo sapiens, HCT-116, 4 h), 7.91 nM; on CDK9/cyclinT1 it was 1610 nM; in experiment [1] (Homo sapiens, HCT-116, 4 h) it was 3790 nM.

As to `C=CC(=O)N1CCO[C@H](CN2CCC(Nc3cc(C(F)(F)F)cn4c(C(C)C)cnc34)CC2)C1` [Example 8, 1-[(2R)-2-[[4-[[3-isopropyl-6-(trifluoromethyl)imidazo[1,2-a]pyridin-8-yl]amino]-1-piperidyl]methyl]morpholin-4-yl]prop-2-en-1-one], the IC50 amounted to 5.74 nM on CDK7/CyclinH/Mat1 (setting [2]); 65.6 nM on CDK7/CyclinH/Mat1 (setting [3]); 24.5 nM in the experiment on cMyc in HCT116 cells (Homo sapiens, HCT-116, 4 h); 2140 nM on CDK9/cyclinT1; 2590 nM in experiment [1] (Homo sapiens, HCT-116, 4 h).
